Results: patent publication US11185077B2, “Attractants for rodents” (priority 2016, dated 2021)

Legend:
[1] = test system: wild house mice, Mus musculus; assay: Field experiments with paired trap boxes: trap captures of wild mice; format: in vivo
Text: Two field experiments were run in parallel from Feb. 4, 2016 to Apr. 14, 2016 in Vancouver B.C. to evaluate the effect of synthetic androstenone (Experiment 7) and of synthetic progesterone and estrogen (Experiment 8) on trap captures of wild mice. Experimental replicates were set up as depicted in FIG. 7 along the interior walls and bird feeder areas of a plant and bird conservatory maintained under tropical conditions. Each replicate consisted of a pair of trap boxes (PROTECTA® Mouse, Bell Laboratories Inc., Madison, Wis. 53704, USA), with 50-cm spacing between boxes in each pair, and at least 2 m between pairs.
In Experiments 7 and 8, each box in each pair contained a snap trap (1) (FIG. 7) that was baited with a food lure (Musso et al. 2014). In Experiment 7, the trap box was also baited with the synthetic two-component sex pheromone of male mice (3,4-dehydro-exo-brevicomin and 2-sec-butyl-4,5-dihydrothiazole). The compounds were formulated in 10 g of mineral oil and dispensed from a custom-made scintillation vial (2) (FIG. 7). Each box in each pair also contained a piece of Whatman #1 filter paper that by random assignment was treated with 4 μg of synthetic androstenone dissolved in 50 μl ether (3a) or 50 μl ether (control; 4). […]
All boxes and snap traps in both experiments were checked every 48 h to 72 h, and test stimuli (food lure, male-specific pheromone blend in mineral oil, filter paper with or without hormones) were replaced at each visit.
Mouse captures in treatment and control traps were compared against an expected 50:50 distribution using χ^2 tests with Yates' correction for continuity (α=0.05). Replicates with captures in both trap boxes of a pair are not included in the graphical illustration and statistical analyses of data.
(§1) Four field experiments were run in Vancouver B.C. to evaluate the effect of synthetic androstenone and synthetic testosterone on captures of female wild mice and rats in combination with species-specific male sex pheromone blend. Experimental replicates were set up along the interior and exterior walls of buildings as depicted in FIG. 7. Experiment 15 evaluated captures of wild mice in trap boxes baited with high-levels of androstenone; Experiment 16 evaluated captures of wild rats in traps baited with high-levels of androstenone; Experiment 17 evaluated captures of wild mice in traps baited with low-levels of testosterone; and Experiment 18 evaluated captures of wild mice in traps baited with low-levels of androstenone. Experiment 15 was run from Feb. 4, 2016 to Apr. 14, 2016. Experiment 16 was run from Feb. 26, 2016 to Sep. 19, 2016. Experiments 17 and 18 were run in parallel from Jun. 2, 2016 to Sep. 8, 2016.
(§2) Each replicate of Experiments 15 to 18 consisted of a pair of trap boxes (Mice: PROTECTA® Mouse, Bell Laboratories Inc., Madison, Wis. 53704, USA; Rats: PROTECTA® Sidekick™; Bell Laboratories Inc., Madison, Wis. 53704), with 50-cm spacing between boxes in each pair, and at least 2 m between pairs. Each trap box contained an armed snap trap (1, Mice: Victor® Easy Set® Mouse Trap; Rats: Victor® Easy Set® Rat Trap; Woodstream Corp, Lititz, Pa. 17543, USA) baited with a cereal-based food bait and a scintillation vial (2) containing synthetic sex pheromone blends. Each box in each pair also contained a treatment stimulus that consisted of a piece of Whatman #1 filter paper (3a) that by random assignment was treated with: 4 μg of synthetic androstenone dissolved in 50 μl ether (Experiments 15 and 16); 750 μg of synthetic testosterone dissolved in 50 μl ether (Experiment 17); or 750 μg of synthetic androstenone dissolved in 50 μl ether (Experiment 18). The corresponding box in each pair contained a control stimulus which consisted of a piece of Whatman #1 filter paper (3b) treated with 50 μl ether. […]

wild rats = assay: Field experiments with paired trap boxes: trap captures of wild rats; format: in vivo, rat; conditions: Experiment 16, 4 μg synthetic androstenone
Text: as §1
as §2, with “18).” for “18). The corresponding box in each pair contained a control stimulus which consisted of a piece of Whatman #1 filter paper (3b) treated with 50 μl ether.”
Experiments 19 and 20 evaluated the effect of synthetic blends of progesterone and estradiol (estrogen) on captures of wild mice (Experiment 19) and wild rats (Experiment 20) in the field. […]

[2] = Experiment 7, 4 μg synthetic androstenone, boxes also with food lure and male mouse sex pheromone
[3] = Experiment 15, 4 μg synthetic androstenone, with food bait and male mouse sex pheromone blend
[4] = Experiment 17, 750 μg synthetic testosterone (low-levels), with food bait and male mouse sex pheromone blend

Row | SMILES | captures of adult female mice vs control boxes [1, 2] | captures of juvenile female mice vs control boxes [1, 2] | captures of juvenile and adult male mice ([1]; Experiment 15, 4 μg synthetic androstenone) | captures of adult female mice vs control boxes [1, 3] | captures of juvenile female mice vs control boxes [1, 3] | captures of juvenile and adult male mice ([1]; Experiment 18, 750 μg synthetic androstenone (low-levels)) | captures of female mice vs control traps ([1]; Experiment 18, 750 μg synthetic androstenone (low-levels), with food bait and male mouse sex pheromone blend) | captures of juvenile and adult male rats (wild rats) | captures of juvenile female rats (wild rats) | captures of adult female rats vs control boxes (wild rats; with food bait and male rat sex pheromone blend) | captures of both adult and juvenile mice ([1]; Experiment 17, 750 μg synthetic testosterone (low-levels)) | captures of adult female mice vs control traps [1, 4] | captures of juvenile female mice vs control traps [1, 4]
1 | C[C@]12CCC(=O)C[C@@H]1CC[C@@H]1[C@@H]2CC[C@]2(C)C=CC[C@@H]12 [androstenone, 5α-androst-16-en-3-one] | significantly more | significantly more | no significant effect | significantly more | significantly more | no significant effect | did not differ statistically | no significant effect | no significant effect | significantly more |  |  | 
2 | C[C@]12CC[C@H]3[C@@H](CCC4=CC(=O)CC[C@@]43C)[C@@H]1CC[C@@H]2O [testosterone, (8R,9S,10R,13S,14S,17S)-17-hydroxy-10,13-dimethyl-1,2,6,7,8,9,11,12,14,15,16,17-dodecahydrocyclopenta[a]phenanthren-3-one, reference compound] |  |  |  |  |  |  |  |  |  |  | no significant effect | significantly more | significantly more
